The values below come from PubChem BioAssay AID328 (DTP/NCI, 2004).

Where “and” joins values, the source holds several entries; their conditions need not be identical. Equal entries are not always repeated. Inconclusive results and toxic doses are left out.

In the experiment the test system is BDF1 mice, P388 leukemia ip, median survival T/C. Description: NCI In Vivo Anticancer Drug Screen. Data for tumor model P388 Leukemia (intraperitoneal) in B6D2F1 (BDF1) mice. To be noted: endpoint: median survival time, higher = longer survival. The procedure, abridged:
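T/C = treated-group survival ÷ vehicle-control survival; tumour transplanted into mice before dosing.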

Where [1] appears, read: dose: 100.0 mg/kg/injection, schedule: Q04DX003 (ip), vehicle: saline with Tween-80.
The mark [2] stands for this setting: dose: 200.0 mg/kg/injection, schedule: Q04DX003 (ip), vehicle: saline with Tween-80.
Setting [3] is: dose: 50.0 mg/kg/injection, schedule: Q01DX009 (ip), vehicle: saline with Tween-80.
Where [4] appears, read: dose: 100.0 mg/kg/injection, schedule: Q01DX009 (ip), vehicle: saline with Tween-80.
[5] abbreviates: dose: 200.0 mg/kg/injection, schedule: Q01DX009 (ip), vehicle: saline with Tween-80.
[6] abbreviates: dose: 132.0 mg/kg/injection, schedule: Q04DX003 (ip), vehicle: saline with Tween-80.
The mark [7] stands for this setting: dose: 300.0 mg/kg/injection, schedule: Q04DX003 (ip), vehicle: saline with Tween-80.

With `COc1cc2c(c(OC)c1OC)-c1cc3c(cc1C(=O)[C@@H]1COC(=O)[C@@H]21)OCO3`, the T/C reads like this: (dose: 1.3 mg/kg/injection, schedule: Q01DX009 (ip), vehicle: saline) 109 % of control; (dose: 2.0 mg/kg/injection, schedule: Q01DX009 (ip), vehicle: saline) 95 % of control; (dose: 3.0 mg/kg/injection, schedule: Q01DX009 (ip), vehicle: saline) 95 % of control; (dose: 5.3 mg/kg/injection, schedule: Q01DX009 (ip), vehicle: saline with Tween-80) 100 % of control; (dose: 8.0 mg/kg/injection, schedule: Q01DX009 (ip), vehicle: saline with Tween-80) 100 % of control; (dose: 12.0 mg/kg/injection, schedule: Q01DX009 (ip), vehicle: saline with Tween-80) 95 % of control. The T/C by setting is: (dose: 21.4 mg/kg/injection, schedule: Q01DX009 (ip), vehicle: saline) 105 % of control; (dose: 32.0 mg/kg/injection, schedule: Q01DX009 (ip), vehicle: saline) 110 % of control; (dose: 48.0 mg/kg/injection, schedule: Q01DX009 (ip), vehicle: saline) 110 % of control.

Consider `CN(C)c1ccc(C=Nc2c(N)n(C)c(=O)n(C)c2=O)cc1`, for which the T/C runs as follows: under setting [1], 101 % of control; under setting [2], 92 % of control; (dose: 400.0 mg/kg/injection, schedule: Q04DX003 (ip), vehicle: saline with Tween-80) 93 % of control.

For `CCOC(=O)C(C1=NC(C)(C)CC(C)O1)C(C[N+](=O)[O-])c1ccccc1` (stereo not given), the T/C (dose: 50.0 mg/kg/injection, schedule: Q01DX001 (ip), vehicle: saline sonified) was 100 % of control; the T/C (dose: 100.0 mg/kg/injection, schedule: Q01DX001 (ip), vehicle: saline sonified) is 100 % of control; the T/C (dose: 200.0 mg/kg/injection, schedule: Q01DX001 (ip), vehicle: saline sonified) was 100 % of control.

On to `CCOC(=O)c1ccc2c3c([nH]c2c1C)-c1ccccc1CC3`, for which the T/C runs as follows: under setting [3], 120 % of control; under setting [4], 111 % of control; under setting [5], 118 % of control.

Regarding `C[C@]12CCC(=O)C=C1CC[C@@H]1[C@@H]2[C@@H](O)C[C@@]2(C)[C@H]1CC[C@]2(O)C(=O)CO`, the T/C runs as follows: (dose: 6.25 mg/kg/injection, schedule: Q01DX010 (sc), vehicle: steriod suspending solution) 100 % of control; (dose: 12.5 mg/kg/injection, schedule: Q01DX010 (sc), vehicle: steriod suspending solution) 100 % of control; (dose: 25.0 mg/kg/injection, schedule: Q01DX010 (sc), vehicle: steriod suspending solution) 110 % of control; (dose: 50.0 mg/kg/injection, schedule: Q01DX010 (sc), vehicle: steriod suspending solution) 120 % of control; (dose: 100.0 mg/kg/injection, schedule: Q01DX010 (sc), vehicle: steriod suspending solution) 115 % of control and 120 % of control; (dose: 200.0 mg/kg/injection, schedule: Q01DX010 (sc), vehicle: steriod suspending solution) 110 % of control.

Take `ClCCN(CCCl)c1ccc2c3c(cccc13)-c1ccccc1-2`: the T/C (dose: 66.0 mg/kg/injection, schedule: Q01DX009 (ip), vehicle: saline with Tween-80) is 151 % of control; the T/C under setting [4] was 177 % of control; the T/C under setting [6] was 160 % of control; the T/C (dose: 150.0 mg/kg/injection, schedule: Q01DX009 (ip), vehicle: saline with Tween-80) is 214 % of control; the T/C under setting [2] was 182 % of control; the T/C under setting [7] is 226 % of control.

Regarding `CCCCCC[N+]1(C)CC2C3C=CC(C3)C2C1` (stereo not given), the T/C (dose: 75.0 mg/kg/injection, schedule: Q01DX009 (ip), vehicle: saline) is 90 % of control.

Take `CSc1ssc(=Nc2ccc(C)cc2)c1-c1ccccc1`: the T/C reads like this: (dose: 100.0 mg/kg/injection, schedule: Q04DX003 (ip), vehicle: Klucel (hydroxypropylcellulose) (HPC)) 105 % of control; (dose: 200.0 mg/kg/injection, schedule: Q01DX009 (ip), vehicle: Klucel (hydroxypropylcellulose) (HPC)) 90 % of control; (dose: 200.0 mg/kg/injection, schedule: Q04DX003 (ip), vehicle: Klucel (hydroxypropylcellulose) (HPC)) 100 % of control; (dose: 400.0 mg/kg/injection, schedule: Q01DX009 (ip), vehicle: Klucel (hydroxypropylcellulose) (HPC)) 95 % of control; (dose: 400.0 mg/kg/injection, schedule: Q04DX003 (ip), vehicle: Klucel (hydroxypropylcellulose) (HPC)) 95 % of control.

Regarding `OC1CCCC2CCC[N-]C12.OC1CCCC2CCC[N-]C12.[Mn+2]` (stereo not given), the T/C (dose: 6.25 mg/kg/injection, schedule: Q01DX009 (ip), vehicle: DMSO) is 107 % of control; the T/C (dose: 12.5 mg/kg/injection, schedule: Q01DX009 (ip), vehicle: DMSO) was 110 % of control; the T/C (dose: 25.0 mg/kg/injection, schedule: Q01DX009 (ip), vehicle: DMSO) was 108 % of control; the T/C (dose: 50.0 mg/kg/injection, schedule: Q01DX009 (ip), vehicle: DMSO) is 123 % of control; the T/C (dose: 100.0 mg/kg/injection, schedule: Q01DX009 (ip), vehicle: DMSO) is 100 % of control.

As for `CC(=O)n1nc(Cl)c2ccc([N+](=O)[O-])cc21`, the T/C runs as follows: under setting [3], 97 % of control; under setting [4], 100 % of control; under setting [5], 100 % of control.

With `COC(=O)C(Sc1ccc(Cl)cc1)C1SC(=S)N(Cc2ccccc2)C1=O` (stereo not given), the T/C under setting [3] was 104 % of control, the T/C under setting [4] is 118 % of control and the T/C under setting [5] is 109 % of control.

As for `CC1(C)CC(C)(c2ccccc2)c2ccccc21` (stereo not given), the T/C was 120 % of control (dose: 100.0 mg/kg/injection, schedule: Q01DX009 (ip), vehicle: Klucel (hydroxypropylcellulose) (HPC)); 109 % of control (dose: 100.0 mg/kg/injection, schedule: Q04DX003 (ip), vehicle: other); 90 % of control (dose: 132.0 mg/kg/injection, schedule: Q01DX009 (ip), vehicle: Klucel (hydroxypropylcellulose) (HPC)); 114 % of control (dose: 200.0 mg/kg/injection, schedule: Q04DX003 (ip), vehicle: other); 100 % of control (dose: 300.0 mg/kg/injection, schedule: Q01DX009 (ip), vehicle: Klucel (hydroxypropylcellulose) (HPC)); 104 % of control (dose: 400.0 mg/kg/injection, schedule: Q04DX003 (ip), vehicle: other).

As for `CC1C=CC(=O)O1` (stereo not given), the T/C (dose: 50.0 mg/kg/injection, schedule: Q01DX009 (ip), vehicle: saline) is 105 % of control; the T/C (dose: 100.0 mg/kg/injection, schedule: Q01DX009 (ip), vehicle: saline) is 105 % of control; the T/C (dose: 200.0 mg/kg/injection, schedule: Q01DX009 (ip), vehicle: saline) was 112 % of control; the T/C (dose: 400.0 mg/kg/injection, schedule: Q01DX009 (ip), vehicle: saline) was 112 % of control.

On to `CCOC(=O)c1ccc(N(CCOS(C)(=O)=O)CCOS(C)(=O)=O)cc1`, for which the T/C (dose: 66.0 mg/kg/injection, schedule: Q01DX008 (ip), vehicle: saline with Tween-80) is 200 % of control; the T/C (dose: 100.0 mg/kg/injection, schedule: Q01DX008 (ip), vehicle: saline with Tween-80) is 222 % of control; the T/C under setting [6] is 177 % of control; the T/C (dose: 150.0 mg/kg/injection, schedule: Q01DX008 (ip), vehicle: saline with Tween-80) was 272 % of control; the T/C under setting [2] is 190 % of control; the T/C under setting [7] is 195 % of control.

`Cc1occc(=O)c1O`: the T/C was 88 % of control under setting [3]; 117 % of control under setting [4]; 90 % of control under setting [5]; 106 % of control (dose: 400.0 mg/kg/injection, schedule: Q01DX009 (ip), vehicle: saline with Tween-80).

For `O=c1oc2ccccc2c(O)c1C(C/C(=N/O)c1ccccc1)c1ccccc1` (stereo not given), the T/C is, setting by setting: (dose: 6.25 mg/kg/injection, schedule: Q01DX009 (ip), vehicle: saline with Tween-80) 99 % of control; (dose: 6.25 mg/kg/injection, schedule: Q04DX003 (ip), vehicle: saline with Tween-80) 100 % of control and 101 % of control; (dose: 12.5 mg/kg/injection, schedule: Q01DX009 (ip), vehicle: saline with Tween-80) 94 % of control; (dose: 12.5 mg/kg/injection, schedule: Q04DX003 (ip), vehicle: saline with Tween-80) 92 % of control and 107 % of control; (dose: 25.0 mg/kg/injection, schedule: Q01DX009 (ip), vehicle: saline with Tween-80) 93 % of control; (dose: 25.0 mg/kg/injection, schedule: Q04DX003 (ip), vehicle: saline with Tween-80) 105 % of control and 108 % of control. The T/C (dose: 50.0 mg/kg/injection, schedule: Q04DX003 (ip), vehicle: saline with Tween-80) was 95 % of control and 110 % of control; the T/C under setting [1] was 102 % of control.
